Source: a compilation of properties of binary mixtures (doi:10.1039/c7cp04592a)

Test: xn = mol fraction of the nth substance listed
Details: 100 kPa

CC[NH3+].O=[N+]([O-])[O-] + CC#N
Details | electrical conductivity [S/m] | viscosity [mPa·s]
278 K, x1 = 0.1 | 1.12 | –
278 K, x1 = 0.2 | 2.29 | –
278 K, x1 = 0.5 | 2.85 | –
278 K, x1 = 0.7 | 2 | –
278 K, x1 = 0.9 | 1.59 | –
288 K, x1 = 0.1 | 1.32 | –
288 K, x1 = 0.2 | 2.85 | –
288 K, x1 = 0.3 | 3.41 | –
288 K, x1 = 0.5 | 3.77 | –
288 K, x1 = 0.9 | 2.27 | –
288.06 K, x1 = 0.6 | – | 13.65
288.06 K, x1 = 0.8 | – | 31.4
288.06 K, x1 = 0.9 | – | 40.5
288.06 K, x1 = 1 | – | 44.4
288.07 K, x1 = 0.1 | – | 0.815
288.09 K, x1 = 0.2 | – | 1.615
288.09 K, x1 = 0.4 | – | 5.47
288.09 K, x1 = 0.5 | – | 8.6
293.06 K, x1 = 0.4 | – | 4.9
293.07 K, x1 = 0.2 | – | 1.458
293.08 K, x1 = 0.8 | – | 26.09
293.08 K, x1 = 0.9 | – | 34
293.08 K, x1 = 0.98 | – | 36.9
293.08 K, x1 = 1 | – | 37.2
293.09 K, x1 = 0.5 | – | 7.45
293.09 K, x1 = 0.6 | – | 11.54
293.1 K, x1 = 0.1 | – | 0.754
293.11 K, x1 = 0.7 | – | 17.86
298 K, x1 = 0.1 | 1.69 | 0.685
298 K, x1 = 0.2 | 3.96 | 1.374
298 K, x1 = 0.3 | 4.71 | 2.451
298 K, x1 = 0.4 | – | 4.07
298 K, x1 = 0.5 | 5 | 6.37
298 K, x1 = 0.6 | – | 9.92
298 K, x1 = 0.8 | – | 20.97
298 K, x1 = 0.9 | 3.14 | 27.58
298 K, x1 = 0.98 | – | 32
298 K, x1 = 1 | 2.26 | 32.7
298.05 K, x1 = 0.8 | – | 21.52
298.07 K, x1 = 1 | – | 33.9
298.08 K, x1 = 0.7 | – | 15.22
298.08 K, x1 = 0.9 | – | 28.01
298.11 K, x1 = 0.3 | – | 2.463
298.11 K, x1 = 0.4 | – | 4.11
298.11 K, x1 = 0.5 | – | 6.46
298.13 K, x1 = 0.6 | – | 10.08
298.14 K, x1 = 0.1 | – | 0.698
303.08 K, x1 = 0.7 | – | 12.25
303.09 K, x1 = 0.3 | – | 2.396
303.1 K, x1 = 0.1 | – | 0.651
303.11 K, x1 = 0.4 | – | 4.16
303.11 K, x1 = 0.5 | – | 6.13
303.11 K, x1 = 0.6 | – | 8.74
303.11 K, x1 = 0.9 | – | 24.88
303.12 K, x1 = 0.2 | – | 1.16
303.13 K, x1 = 1 | – | 30.58
303.14 K, x1 = 0.98 | – | 29.95
303.16 K, x1 = 0.8 | – | 17.9
308 K, x1 = 0.1 | 2.38 | –
308 K, x1 = 0.3 | 6.28 | –
308 K, x1 = 0.5 | 6.3 | –
308 K, x1 = 0.9 | 4.21 | –
308 K, x1 = 1 | 3.07 | –
308.11 K, x1 = 1 | – | 26.5
308.12 K, x1 = 0.4 | – | 3.98
308.13 K, x1 = 0.2 | – | 1.074
308.14 K, x1 = 0.98 | – | 24.9
308.15 K, x1 = 0.5 | – | 5.77
308.16 K, x1 = 0.1 | – | 0.618

CC#N + CC[NH3+].O=[N+]([O-])[O-]
x2 = 0
Details | viscosity [mPa·s]
288.07 K | 0.408
293.1 K | 0.371
298 K | 0.35
298.12 K | 0.352
303.13 K | 0.321
